# Tested on: GDI-KD-9, the Mtb H37Ra-derived glnA1 knockdown mutant
# Type: cell-based, Mycobacterium tuberculosis
Structure (SMILES),GIC shift (times more sensitive),GIC shift caused by the reduction of glnA1 expression,level at which growth inhibition saturates,growth inhibition at high concentrations
COc1ccc2cc(-c3nc(C(C)(C)C)[nH]c3-c3ccnc(N)c3)ccc2c1 [11a],3.6 times,3- to 4 fold,20 % full scale,
"C[C@]1(O)C[C@@H](c2nc(-c3ccc4ccc(-c5ccccc5)nc4c3)c3c(N)nccn32)C1 [LIN, linsitinib]",,,20 % full scale,
"CS(=N)(=O)CCC(N)C(=O)O [MSO, L-methionine S-sulfoximine]",,16 fold,,inhibits the growth completely
"CO[C@H]1/C=C/O[C@@]2(C)Oc3c(C)c(O)c4c(O)c(c(/C=N/N5CCN(C)CC5)c(O)c4c3C2=O)NC(=O)/C(C)=C\C=C\[C@H](C)[C@H](O)[C@@H](C)[C@@H](O)[C@@H](C)[C@H](OC(C)=O)[C@@H]1C [RIF, rifampicin]",did not show any GIC shift,remained susceptible,,

# — publication PMC11807261 (ACS infectious diseases, 2022)
